Measurements published in PubChem BioAssay AID328 (DTP/NCI, 2004).
Several values for one entry are separate records, joined by “and”; a condition that tells them apart may be missing. Identical values can stand only once. Inconclusive results and toxic doses are left out. How the source made its calls: active means survival T/C of 150% or more; inactive means T/C below 125% in these data. Non-standard residues stand in square brackets, D forms with d. Residues, ends and D or L forms follow the SMILES beside them. *: point of attachment. NMeY = CN[CH](Cc1ccc(O)cc1)C(=O)O; Bn = c1ccc(C*)cc1

Tested on: BDF1 mice, P388 leukemia ip, median survival T/C
Experiment: NCI In Vivo Anticancer Drug Screen. Data for tumor model P388 Leukemia (intraperitoneal) in B6D2F1 (BDF1) mice
Conditions: endpoint: median survival time, higher = longer survival
In short: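 Antitumour effect was judged in vivo: survival in drug-treated mice, normalised to that of vehicle-dosed controls, gives the reported T/C.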

[1] = dose: 100.0 mg/kg/injection, schedule: Q01DX009 (ip), vehicle: Klucel (hydroxypropylcellulose) (HPC)
[2] = dose: 200.0 mg/kg/injection, schedule: Q01DX009 (ip), vehicle: Klucel (hydroxypropylcellulose) (HPC)
[3] = dose: 100.0 mg/kg/injection, schedule: Q04DX003 (ip), vehicle: Klucel (hydroxypropylcellulose) (HPC)

Measured: T/C

COc1ccc2c3c(ccc2c1)C(=O)C(C)(C#N)CC3 (stereo not drawn)
inactive: dose: 50.0 mg/kg/injection, schedule: Q01DX009 (ip), vehicle: Klucel (hydroxypropylcellulose) (HPC) 104 % of control | [1] 95 % of control | dose: 100.0 mg/kg/injection, schedule: Q04DX003 (ip), vehicle: other 95 % of control | [2] 100 % of control | dose: 200.0 mg/kg/injection, schedule: Q04DX003 (ip), vehicle: other 100 % of control | dose: 400.0 mg/kg/injection, schedule: Q04DX003 (ip), vehicle: other 95 % of control

CC(=O)NCC(S)c1ccc(Cl)cc1 (stereo not drawn)
inactive: dose: 100.0 mg/kg/injection, schedule: Q04DX003 (ip), vehicle: saline with Tween-80 118 % of control | dose: 200.0 mg/kg/injection, schedule: Q04DX003 (ip), vehicle: saline with Tween-80 95 % of control | dose: 400.0 mg/kg/injection, schedule: Q04DX003 (ip), vehicle: saline with Tween-80 90 % of control

O=CNc1c(Cl)c(Cl)c2c(c1Cl)Cc1cc(Cl)ccc1-2
inactive: dose: 0.18 mg/kg/injection, schedule: Q01DX009 (ip), vehicle: DMSO 91 % of control | dose: 0.37 mg/kg/injection, schedule: Q01DX009 (ip), vehicle: DMSO 95 % of control | dose: 0.75 mg/kg/injection, schedule: Q01DX009 (ip), vehicle: DMSO 100 % of control | dose: 3.0 mg/kg/injection, schedule: Q01DX009 (ip), vehicle: DMSO 89 % of control | dose: 12.5 mg/kg/injection, schedule: Q01DX009 (ip), vehicle: DMSO 96 % of control | dose: 50.0 mg/kg/injection, schedule: Q01DX001 (ip), vehicle: Klucel (hydroxypropylcellulose) (HPC) 90 % of control | dose: 100.0 mg/kg/injection, schedule: Q01DX001 (ip), vehicle: Klucel (hydroxypropylcellulose) (HPC) 90 % of control | [1] 116 % of control | [3] 90 % of control and 100 % of control | dose: 200.0 mg/kg/injection, schedule: Q01DX001 (ip), vehicle: Klucel (hydroxypropylcellulose) (HPC) 86 % of control | [2] 116 % of control | dose: 200.0 mg/kg/injection, schedule: Q04DX003 (ip), vehicle: Klucel (hydroxypropylcellulose) (HPC) 90 % of control and 91 % of control | dose: 400.0 mg/kg/injection, schedule: Q01DX009 (ip), vehicle: Klucel (hydroxypropylcellulose) (HPC) 105 % of control | dose: 400.0 mg/kg/injection, schedule: Q04DX003 (ip), vehicle: Klucel (hydroxypropylcellulose) (HPC) 86 % of control and 87 % of control

CNC(Cc1ccc(OCc2ccccc2)cc1)C(=O)NC(CC(C)C)C(=O)OC (stereo not drawn) (H-[NMeY](Bn)-Leu-OMe; configuration not given here)
inactive: dose: 25.0 mg/kg/injection, schedule: Q01DX009 (ip), vehicle: saline 106 % of control | dose: 50.0 mg/kg/injection, schedule: Q01DX009 (ip), vehicle: saline 99 % of control | dose: 50.0 mg/kg/injection, schedule: Q04DX003 (ip), vehicle: saline 108 % of control | dose: 100.0 mg/kg/injection, schedule: Q01DX009 (ip), vehicle: saline 92 % of control | dose: 100.0 mg/kg/injection, schedule: Q04DX003 (ip), vehicle: saline 111 % of control | dose: 200.0 mg/kg/injection, schedule: Q01DX009 (ip), vehicle: saline 106 % of control | dose: 200.0 mg/kg/injection, schedule: Q04DX003 (ip), vehicle: saline 106 % of control

CCCCCCCCCCCCCCCCCC[n+]1cccc(C(=O)N2CCOCC2)c1
inactive: dose: 1.0 mg/kg/injection, schedule: Q01DX009 (ip), vehicle: saline with Tween-80 108 % of control | dose: 2.0 mg/kg/injection, schedule: Q01DX009 (ip), vehicle: Klucel (hydroxypropylcellulose) (HPC) 100 % of control | dose: 2.0 mg/kg/injection, schedule: Q01DX009 (ip), vehicle: saline with Tween-80 95 % of control | dose: 4.0 mg/kg/injection, schedule: Q01DX009 (ip), vehicle: Klucel (hydroxypropylcellulose) (HPC) 90 % of control | dose: 4.0 mg/kg/injection, schedule: Q01DX009 (ip), vehicle: saline with Tween-80 100 % of control | dose: 8.0 mg/kg/injection, schedule: Q01DX009 (ip), vehicle: Klucel (hydroxypropylcellulose) (HPC) 109 % of control | dose: 8.0 mg/kg/injection, schedule: Q01DX009 (ip), vehicle: saline with Tween-80 108 % of control | dose: 16.0 mg/kg/injection, schedule: Q01DX009 (ip), vehicle: Klucel (hydroxypropylcellulose) (HPC) 104 % of control | dose: 16.0 mg/kg/injection, schedule: Q01DX009 (ip), vehicle: saline with Tween-80 121 % of control | dose: 25.0 mg/kg/injection, schedule: Q04DX003 (ip), vehicle: Klucel (hydroxypropylcellulose) (HPC) 100 % of control | dose: 32.0 mg/kg/injection, schedule: Q01DX009 (ip), vehicle: Klucel (hydroxypropylcellulose) (HPC) 113 % of control | dose: 50.0 mg/kg/injection, schedule: Q04DX003 (ip), vehicle: Klucel (hydroxypropylcellulose) (HPC) 109 % of control | [3] 90 % of control
